Patent US20160169850A1, “SENSOR MOLECULE” (University of Malta, priority 2014, published 2016)
Like-named read-outs stand apart in the source and are kept apart here.

Assays:
[1] = for Fluorescent Output: 1:1 MeOH:H2O
[2] = 1:1 methanol:water, excess H^+ (pH 3), emission at 525 nm
[3] = CH3CN; known sensor; cited from earlier work
[4] = CH3CN; known sensor; cited from earlier work; remark: listed apart in the source

N-ferrocenyl-4-methylpiperazine-1,8-naphthalimide [Compound 5]
visual output under UV lamp ([1]; 365 nm light, high acid and Fe(III), 1:1 methanol/water): bright green fluorescent | Fluorescent Output ([1]; Condition A: no inputs): Low | Fluorescent Output ([1]; Condition D: Fe(III) and H^+ both): High | fluorescence enhancement ([1]; both inputs versus no input or one input, 1:1 methanol:water): 19 fold | Output emission, logic level (Condition A: H^+ low, Fe^3+ low): low (Output is considered high when >0.050) | Output emission, logic level (Condition B: 0.2 mM H^+, Fe^3+ low): low (Output is considered high when >0.050) | Output emission, logic level (Condition C: H^+ low, 10 μM Fe(III)): low (Output is considered high when >0.050) | Output emission, logic level (Condition D: 0.2 mM H^+ and 10 μM Fe(III)): high (Output is considered high when >0.050) | −log [Fe^3+] at equivalence point [2]: 5.1

CN(CC1=CSC(=C2SC=CS2)S1)Cc1c2ccccc2cc2ccccc12 [Compound 2]
Quantum Yield (ΦF) [3]: 0.015 | Fluorescent Enhancement (FE) [4]: 5
